This is an account of results in patent US20200255492A1, “LEPTIN PEPTIDES AND THEIR USE FOR TREATING NEUROLOGICAL DISORDERS” (UNIVERSITY OF DUNDEE, priority 2017, published 2020).

The test system of one assay is acute hippocampal slices. The assay can be described thus: HFS-induced LTP with leptin hexamers. The class given is cell-based, Sprague Dawley rats. The settings on record: 10 nM for 50 min prior to HFS; control LTP 117±10.8% / 125±4.9%. How it is done: Parasagittal hippocampal slices (300 μm) were prepared from either P13-21 or 12-24-week-old male Sprague Dawley rats as previously (Moult et al. 2010). Brains were rapidly removed and placed in ice-cold artificial CSF (aCSF; bubbled with 95% O2 and 5% CO2) containing the following (in mm): 124 NaCl, 3 KCl, 26 NaHCO3, 1.25 NaH2PO4, 2 CaCl2, 1 MgSO4, and 10 d-glucose. Once prepared, parasagittal slices were allowed to recover at room temperature in oxygenated aCSF for 1 h before use. Slices were transferred to a submerged chamber maintained at room temperature and perfused with artificial cerebrospinal fluid at 2 ml min^−1. Standard extracellular recordings were used to monitor evoked field excitatory postsynaptic potentials (fEPSP) from stratum radiatum. The Schaffer collateral-commissural pathway was stimulated (constant voltage; 0.1 ms) at 0.033 Hz, using a stimulus intensity that evoked a peak amplitude ˜50% of the maximum. Synaptic potentials were low pass filtered at 2 kHz and digitally sampled at 10 kHz. The fEPSP slope was measured and expressed relative to baseline. Synaptic records are the average of 4 consecutive responses and stimulus artefacts are blanked for clarity. Recordings were made using an Axopatch 200B amplifier and analyzed using LTP v2.4 software. In synaptic plasticity studies, the degree of potentiation was calculated 30-35 min after HFS and expressed as a percentage of baseline±standard error of mean (SEM).
To determine if the leptin hexamers influence the magnitude of activity-dependent synaptic plasticity, standard extracellular recording techniques were used to assess the effects of leptin (116-121, 117-122, 118-123, 120-125, 124-129 and 125-130) on the magnitude of LTP induced by high frequency stimulation (100 Hz, 1 s) in acute hippocampal slices. […] In parallel studies, application of leptin (118-123; 158±3.8%; n=7; p<0.05; FIG. 8) or leptin (120-125; to 163±8.8% of baseline; n=5; p<0.05) also facilitated LTP, compared to control LTP (FIG. 8).

Assay [1] relates to GluA1 surface expression in cultured hippocampal neurons. The assay is described as follows: Surface labelling of AMPA receptor subunit GluA1 (immunocytochemistry). The class given is cell-based, Sprague Dawley rats. To be noted: for GluA1 surface expression, hexamer study: 10 nM, 15 min.
Assay [2] concerns differentiated human neural cells (SH-SY5Y). The assay is described as follows: LDH release assay (membrane leakage, cell death). The class given is cell-based. To be noted: 10 μM Aβ1-42; WP1066 5 μM, wortmannin 50 nM. On the procedure:
The human neuroblastoma cell line, SH-SY5Y (ECACC, UK) was maintained in Dulbecco's Modified Eagle Medium supplemented with glucose ([…]) and 10% (v/v) cosmic calf serum (Fisher Scientific, UK) at 37° C. in a humidified atmosphere of 5% CO2, 95% air and allowed to reach 70-80% confluence before seeding. Cells (passage 10-18) were plated at 10 000 cells per well in 96 well tissue culture plates (Nunc, VWR, UK) and at a density of 2×10^5 cells in 35 mm dishes for protein extraction. To induce differentiation, cells were cultured in DMEM supplemented with glucose ([…]), 1% (v/v) cosmic calf serum and 10 μM retinoic acid for 5 days. Thereafter they were incubated in DMEM supplemented with glucose ([…]), serum replacement 2 (2%; Sigma, UK) and 18 μM 5-fluorodeoxyuridine to inhibit proliferation of undifferentiated cells. The 50% of the medium was changed every 2-3 days and pharmacological treatment was carried out 7 days after switching to this medium. Reagents used were (from Sigma UK unless stated) 0.1-10 nM human leptin and leptin (116-130); 0.1-10 nM leptin (22-56; Bachem; Switzerland); 10 nM leptin (116-121) leptin (117-122), leptin (124-129) or leptin (125-130; all Severn Biotech, UK); 5 μM copper chloride; […], 5 μM WP1066 or 50 nM wortmannin. All treatments were added to the culture at the same time and survival assays were carried out after 96 h treatment. Protein samples for signaling ELISA were extracted 3 h after exposure to the relevant reagents and for biomarker expression after 72 hours.
The concentration of lactate dehydrogenase (LDH) in the culture medium or the mitochondrial activity within cells was used to monitor the level of cell death, as previously (Oldreive and Doherty 2010). In certain experiments, a Crystal violet assay was used to assess total cell number. Cells were fixed in neutral buffered formalin and washed 3 times in PBS prior to staining with 0.01% crystal violet acetate for 5 min. Plates were washed 5-10 times in dH2O and cells solubilised in 100 μl dimethyl sulfoxide (DMSO) before reading the absorbance on a Biohit BP100 plate reader. For all assays, data is expressed as percentage relative to control, untreated wells to normalize for differences in plating density between individual experiments.
To determine whether leptin (116-130) has neuroprotective actions, the effects of leptin (116-130) on the viability of differentiated human neural cells (SH-SY5Y) was examined after exposure to either 5 μM CuCl2 or 10 μM Aβ1-42. Cells were treated with the toxin alone or with a range of concentrations (10-0.1 nM) of leptin or leptin (116-130). […] Thus like leptin, treatment with leptin (116-130) reduces neuronal death in response to AD-linked toxins in vitro.
For orientation: LDH leaks from cells whose membrane has failed.

Assay [3] deals with tau in hippocampal neurons. The assay can be described thus: Immunocytochemistry of endogenous tau and tau/PSD-95 co-localization. The assay is classed as cell-based, Sprague-Dawley rats. The settings on record: Aβ1-42 1 μM plus leptin/fragment 10 nM or SB216763 100 nM. On the procedure: Hippocampal cultures were prepared as previously (Moult et al, 2010). Neonatal Sprague-Dawley rats (1-3 d old) were […] killed by cervical dislocation in accordance with the UK Animals (Scientific Procedures Act) 1986 legislation. Hippocampi were removed, and after washing in HEPES-buffered saline comprising (mM) 135 NaCl; 5 KCl; 1 CaCl2; 1 MgCl2; 10 HEPES; and 25 D-glucose at […], were treated with papain (1.5 mg ml21; Sigma-Aldrich) for 20 min at 37° C. Dissociated cells were plated onto sterile dishes (35 mm diameter; Greiner Bio-One, Kremsmun-ster, Austria) treated with poly-D-lysine (20 μg ml^−1; 1-2 h). Cultures were maintained in serum replacement medium (SR2; Sigma-Aldrich) in a humidified atmosphere of 5% CO2 and […] at 37° C. for up to 2 wk.
Immunocytochemistry was conducted on primary hippocampal cultures (7-14 DIV). Prior to labelling with antibodies, neurons were washed with HBS containing glycine (0.01 mM) and incubated with agents for 1 h at room temperature. Cultures were fixed with 4% paraformaldehyde for 5 min, then permeabilized with 0.1% Triton X-100 for 5 min. To label endogenous tau, neurons were incubated with a rabbit anti-tau (Ab-217; Genscript) primary antibody (1:200 dilution) at room temperature for 30 min, followed by incubation with an Alexa Fluor555 donkey anti-rabbit (1:250, Invitrogen) secondary antibody for an additional 30 min duration. To assess the % co-localisation of tau at synapses, neurons were dual labelled with an antibody against the synaptic marker, PSD-95 (mouse anti-PSD-95; 1:500, Thermo Fisher) followed by application of an Alexa Fluor488 goat anti-mouse secondary antibody (1:500, Invitrogen).
A Zeiss LSM510 confocal microscope was used for image acquisition and analysis. Images were obtained using a 10-s scan speed in single tracking mode or multi-tracking mode for dual labelling experiments. The intensity of immunostaining was measured off-line using Lasersharp software (Zeiss Lasersharp), whereby analysis lines of 50 μm length were drawn along randomly selected dendritic regions. All data were obtained from at least three different cultures from different animals. Imaging conditions including illumination intensity and photomultiplier gains were kept constant between treatments for each experiment. In addition, data were normalised relative to the mean fluorescence intensity obtained from control neurons. For synaptic co-localisation experiments, tau and PSD-95 positive immunostaining were compared. The number of tau-positive sites that co-localized with PSD-95 positive sites were counted and expressed as a percentage of total positive sites (peaks of intensity).

On to “PQTSGL (listed as Mus musculus) [leptin (120-125)]”, for which the “magnitude of LTP after HFS (100 Hz, 1 s)” value in the assay with acute hippocampal slices is 163±8.8 % of baseline. In assay [1], the “GluA1 surface expression, hexamer study” value is reported as “increased the surface expression of GluA1”. For the molecule “leptin (122-128): leptin fragment amino acids 122-128 (ASGLETL; UniProt P41159 122-128, looked up, fragment)”, the “GluA1 surface expression, hexamer study” value in assay [1] is on record as “failed to significantly alter the surface expression of GluA1”. In the case of “bisperoxovanadium [bpV, reference compound]”, the “GluA1 surface expression, agent alone (PTEN study)” value in assay [1] (bpV 50 nM, 30 min) is recorded as 148±8 % of control. Take `C[C@H](NC(=O)/C(C#N)=C/c1cccc(Br)n1)c1ccccc1` [WP1066, reference compound]: the “effect of inhibitor on leptin (116-130)-mediated neuroprotection (LDH)” value in assay [2] is “prevented leptin (116-130)-mediated neuroprotection”.

With “leptin (121-126): leptin fragment amino acids 121-126 (WASGLE; UniProt P41159 121-126, looked up, fragment)”, the “GluA1 surface expression, hexamer study” value in assay [1] is recorded as “failed to significantly alter the surface expression of GluA1”. Take `Cn1cc(C2=C(c3ccc(Cl)cc3Cl)C(=O)NC2=O)c2ccccc21` [SB216763, reference compound]: in assay [3], the “% co-localization of tau and PSD-95 in Aβ1-42-treated neurons” value is listed as “decreased % tau/PSD-95 co-localization”; the “relative tau intensity in Aβ1-42-treated neurons” value is given as “mirrors the effects of leptin”. For the molecule “SLPQTS (listed as Mus musculus) [leptin (118-123)]”, the “magnitude of LTP after HFS (100 Hz, 1 s)” value in the assay with acute hippocampal slices is on record as 158±3.8 % of baseline. For the same molecule, in assay [1], the “GluA1 surface expression, hexamer study” value is “increased the surface expression of GluA1”.
